# Like-named read-outs stand apart in the source and are kept apart here.
# How the values were obtained:
# HIV-1 (H9/IIIB strain) = assay: Multiple round HIV-1 infection assay (Viking assay), HIV-1 replication in MT4-GFP cells; assay type: cell-based; conditions: MT4-GFP cells infected with HIV-1 H9/IIIB
# Protocol: The antiviral activity of the tenofovir prodrugs of the Examples herein was assessed in an assay that measures the rate of replication of HIV in cell culture, termed the Viking assay (VIral KINetics in Green cells) and performed as follows. HIV-1 replication was monitored using MT4-gag-GFP clone D3 (hereafter designated MT4-GFP; GFP is green fluorescent protein), which are MT-4 cells modified to harbor a GFP reporter gene, the expression of which is dependent on the HIV-1 expressed proteins tat and rev; see Wang Y-J et al., 2010J Virological Methods 165:230-237. Productive infection of an MT4-GFP cell with HIV-1 results in GFP expression approximately 24 h post-infection. MT4-GFP cells were maintained at 37° C./5% CO2/90% relative humidity in RPMI 1640 supplemented with 10% fetal bovine serum, 100 U/ml penicillin/streptomycin, and 400 μg/ml G418 to maintain the reporter gene. For infections, MT4-GFP cells were placed in the same medium lacking G418 and infected overnight with HIV-1 (H9/IIIB strain) virus at an approximate multiplicity of infection of 0.01 in the same incubation conditions. Cells were then washed and re-suspended in either RPMI 1640 supplemented with 10% or 50% normal human serum (NHS) at 1.6×10^5 cells/mL (10% NHS or 50% NHS, respectively). Compound plates were prepared by dispensing compounds dissolved in DMSO into wells of 384 well poly-D-lysine-coated plates (0.2 μl/well) using an ECHO acoustic dispenser. Each compound was tested in a 10-point serial 3-fold dilution (typical final concentrations: 8.4 μM-0.42 nM). Controls included no inhibitor (DMSO only) and a combination of three antiviral agents (efavirenz, indinavir, and an integrase strand transfer inhibitor at final concentrations of 4 μM each). Cells were added (50 μL/well) to compound plates and the infected cells were maintained at 37′C/5% CO2/90% relative humidity.
# Infected cells were quantified at two time points, ˜48 h and ˜72 h post-infection, by counting the number of green cells in each well using an Acumen eX3 scanner. The increase in the number of green cells over ˜24 h period gives the reproductive ratio, R0, which is typically 5-15 and has been shown experimentally to be in logarithmic phase (data not shown). R0 is calculated for each well, and IC50s determined by non-linear 4-parameter curve fitting.
# [1] = Prodrug stability assay in bio-relevant media (FaSSIF with Pancreatin), GI Tract stability; assay type: in vitro ADME; conditions: HPLC peak area of prodrug at 5 h divided by area at 0 h; 0.5 mg/mL Pancreatin in FaSSIF, 37° C.
# Protocol: The following assay was employed to evaluate the stability of the prodrugs in simulated gastrointestinal tract conditions. Preparation of fasted state simulated intestinal fluid (FaSSIF) using Phares SIF Powder was carried out according to protocols from Phare Drug Delivery AG (Baselland, Switzerland). For sample preparation, 10 μL stock solutions (10 mM) of prodrug substance in DMSO was added to 990 μL of 0.5 mg/mL Pancreatin solution (Fisher CAS#8049-47-6) in FaSSIF. Two samples were prepared for each compound. If the sample was a clear solution, it was directly analyzed by HPLC. If the sample was not clear, the sample was diluted with 100% ACN, maintained at 37° C. and observed 5 h later. If the sample was clear, HPLC analysis was directly performed. If the sample was still not clear, the sample was diluted with 100% ACN and assayed by HPLC. All the samples were vortexed for 3 min and observed before injection. For the diluted samples, the area is multiplied by a factor when the data is analyzed. The analysis was carried out with an Agilent 1100 series HPLC with autosampler. The column was usually a Poroshell 120 EC-C18, 4.6×50 mm, 2.7 μm. The flow rate was 1.8 mL/min, and the injection volume was 5 or 10 μL. UV detection was in the range 210-400 nm. The mobile phase consisted of solvent A (water plus 10 mM tetrabutylammonium bromide) and solvent B (acetonitrile) with a gradient of 90% solvent A at 0 min, changing to 95% solvent B over 6 min, maintaining for 1.5 min, then reverting to 90% solvent A over 1.6 min. The HPLC peak area of the prodrug at 5 h was divided by the HPLC peak area of the prodrug at 0 h, to generate the % claimed parent ratio, which is summarized in Table 2. for GI Tract stability.
# [2] = 10% normal human serum, read-out: Viking, IC50 (10% NHS)
# [3] = 50% normal human serum, read-out: Viking, IC50 (50% NHS)
# [4] = Human immunodeficiency virus 1, IIIB, 50% normal human serum, read-out: Viking, IC50 (50% NHS)
# [5] = Human immunodeficiency virus 1, IIIB, 10% normal human serum, read-out: Viking, IC50 (10% NHS)
GI Tract stability [1] [%],SMILES,IC50 (HIV-1 (H9/IIIB strain); [2]) [nM],IC50 (HIV-1 (H9/IIIB strain); [3]) [nM],IC50 (HIV-1 (H9/IIIB strain); [4]) [nM],IC50 (HIV-1 (H9/IIIB strain); [5]) [nM]
,"CC(C)OC(=O)C(C)(C)NP(=O)(CO[C@H](C)Cn1cnc2c(N)ncnc21)N[C@H](C)C(=O)OC1CCCC1 (single isomer, unassigned) [Example 1A]",19.3,44.3,,
95.9,"CC(C)OC(=O)C(C)(C)NP(=O)(CO[C@H](C)Cn1cnc2c(N)ncnc21)N[C@H](C)C(=O)OC1CCCC1 (single isomer, unassigned) [Example 1B]",2.4,6.2,,
,"CCCCOC(=O)[C@@H](C)NP(=O)(CO[C@H](C)Cn1cnc2c(N)ncnc21)NC(C)(C)C(=O)OC(C)C (single isomer, unassigned) [Example 3A]",20.7,71.4,,
,"CC(C)OC(=O)[C@@H](C)NP(=O)(CO[C@H](C)Cn1cnc2c(N)ncnc21)NC(C)(C)C(=O)OC(C)C (single isomer, unassigned) [Example 4A]",418,1400,,
,"CC(C)OC(=O)[C@@H](C)NP(=O)(CO[C@H](C)Cn1cnc2c(N)ncnc21)NC(C)(C)C(=O)OC(C)C (single isomer, unassigned) [Example 4B]",74.6,122,,
,"CC(C)COC(=O)[C@@H](C)NP(=O)(CO[C@H](C)Cn1cnc2c(N)ncnc21)NC(C)(C)C(=O)OC(C)C (single isomer, unassigned) [Example 5A]",33.1,129,,
,"CC(C)COC(=O)[C@@H](C)NP(=O)(CO[C@H](C)Cn1cnc2c(N)ncnc21)NC(C)(C)C(=O)OC(C)C (single isomer, unassigned) [Example 5B]",2.5,6.4,,
,"CC(C)OC(=O)C(C)(C)NP(=O)(CO[C@H](C)Cn1cnc2c(N)ncnc21)N[C@H](C)C(=O)OC1CCCCC1 (single isomer, unassigned) [Example 6A]",101,500,,
,"CC(C)OC(=O)C(C)(C)NP(=O)(CO[C@H](C)Cn1cnc2c(N)ncnc21)N[C@H](C)C(=O)OC1CCCCC1 (single isomer, unassigned) [Example 6B]",1.9,5.6,,
,"CCCCCCOC(=O)[C@@H](C)NP(=O)(CO[C@H](C)Cn1cnc2c(N)ncnc21)NC(C)(C)C(=O)OC(C)C (single isomer, unassigned) [Example 7A]",10.4,57.8,,
,"CCCCCCOC(=O)[C@@H](C)NP(=O)(CO[C@H](C)Cn1cnc2c(N)ncnc21)NC(C)(C)C(=O)OC(C)C (single isomer, unassigned) [Example 7B]",4.7,28.8,,
,"CCCCCOC(=O)[C@@H](C)NP(=O)(CO[C@H](C)Cn1cnc2c(N)ncnc21)NC(C)(C)C(=O)OC(C)C (single isomer, unassigned) [Example 8A]",12.6,,41.4,
,"CCCCCOC(=O)[C@@H](C)NP(=O)(CO[C@H](C)Cn1cnc2c(N)ncnc21)NC(C)(C)C(=O)OC(C)C (single isomer, unassigned) [Example 8B]",3.9,20.7,,
,"CCCCCCOC(=O)C(C)(C)NP(=O)(CO[C@H](C)Cn1cnc2c(N)ncnc21)N[C@H](C)C(=O)OCC(C)C (single isomer, unassigned) [Example 10A]",6.6,72.5,,
,"CCCCCCOC(=O)C(C)(C)NP(=O)(CO[C@H](C)Cn1cnc2c(N)ncnc21)N[C@H](C)C(=O)OCCCC (single isomer, unassigned) [Example 11A]",9.9,99,,
,"CCCCCCOC(=O)C(C)(C)NP(=O)(CO[C@H](C)Cn1cnc2c(N)ncnc21)N[C@H](C)C(=O)OCCCC (single isomer, unassigned) [Example 11B]",0.8,2.6,,
,"CCCCCCOC(=O)C(C)(C)NP(=O)(CO[C@H](C)Cn1cnc2c(N)ncnc21)N[C@H](C)C(=O)OCCCCC (single isomer, unassigned) [Example 12A]",7.3,54.4,,
,"CCCCCCOC(=O)C(C)(C)NP(=O)(CO[C@H](C)Cn1cnc2c(N)ncnc21)N[C@H](C)C(=O)OCCCCC (single isomer, unassigned) [Example 12B]",0.5,3.3,,
83.8,"CCCCCCOC(=O)[C@@H](C)NP(=O)(CO[C@H](C)Cn1cnc2c(N)ncnc21)NC(C)(C)C(=O)OCCCCCC (single isomer, unassigned) [Example 13B]",,,,
,"CCCCCCOC(=O)C(C)(C)NP(=O)(CO[C@H](C)Cn1cnc2c(N)ncnc21)N[C@H](C)C(=O)OC1CCCC1 (single isomer, unassigned) [Example 14A]",9.8,67.2,,
,"CCCCCCOC(=O)C(C)(C)NP(=O)(CO[C@H](C)Cn1cnc2c(N)ncnc21)N[C@H](C)C(=O)OC1CCCCC1 (single isomer, unassigned) [Example 15A]",7.7,25.9,,
,"CCCCCOC(=O)[C@@H](C)NP(=O)(CO[C@H](C)Cn1cnc2c(N)ncnc21)NC(C)(C)C(=O)OCCCCC (single isomer, unassigned) [Example 16A]",10,60.1,,
,"CC(C)OC(=O)C(C)(C)NP(=O)(CO[C@H](C)Cn1cnc2c(N)ncnc21)N[C@H](C)C(=O)OC1CCC1 (single isomer, unassigned) [Example 18A]",,,34.2,20
,"CCCCCOC(=O)C(C)(C)NP(=O)(CO[C@H](C)Cn1cnc2c(N)ncnc21)N[C@H](C)C(=O)OC1CCC1 (single isomer, unassigned) [Example 19A]",6.9,27.4,,
,"CCCCCCOC(=O)C(C)(C)NP(=O)(CO[C@H](C)Cn1cnc2c(N)ncnc21)N[C@H](C)C(=O)OC1CCC1 (single isomer, unassigned) [Example 21A]",4.4,14.9,,
,"CCCCCCOC(=O)C(C)(C)NP(=O)(CO[C@H](C)Cn1cnc2c(N)ncnc21)N[C@H](C)C(=O)OC1CCC1 (single isomer, unassigned) [Example 21B]",0.7,2.8,,
,"CCCCOC(=O)C(C)(C)NP(=O)(CO[C@H](C)Cn1cnc2c(N)ncnc21)N[C@H](C)C(=O)OC1CCC1 (single isomer, unassigned) [Example 23A]",,35.5,,6.7
,"CCCCCOC(=O)[C@H]1CCCN1P(=O)(CO[C@H](C)Cn1cnc2c(N)ncnc21)NC(C)(C)C(=O)OCCCCC (single isomer, unassigned) [Example 26A]",,50.3,,5.3
,"C[C@H](Cn1cnc2c(N)ncnc21)OCP(=O)(N[C@H](C)C(=O)OC1CCCC1)NC(C)(C)C(=O)OC1CCCCC1 (single isomer, unassigned) [Example 27A]",12.9,64.5,,
,"C[C@H](Cn1cnc2c(N)ncnc21)OCP(=O)(N[C@H](C)C(=O)OC1CCCC1)NC(C)(C)C(=O)OC1CCC1 (single isomer, unassigned) [Example 28A]",,16.1,,5.4

# — US10745428B2, “Antiviral phosphodiamide prodrugs of tenofovir” (Merck Sharp & Dohme Corp., priority 2015, dated 2020)
